From patent US20060148832A1, “Use of 2-amino-2h-quinazoline derivatives for producing therapeutic agents” (priority 2003, published 2006)

What was measured:
[1] = system: thrombocytes; conditions: dose of 3 mg/day, after one week; cited from earlier work
[2] = anagrelide base; cited from earlier work
[3] = Cyclization of the anagrelide prodrug to anagrelide in aqueous medium as a function of pH; assay type: physicochemical; conditions: 37° C., after one hour
From the text: The 2-amino-2H-quinazoline derivatives according to the invention can be cyclized to the anagrelide in aqueous medium as a function of the pH without addition of other adjuvants or boiling under reflux for hours. […] A cyclization of the compound with the general chemical formula I in strongly acidic pH range, as prevails, for example, in the stomach of mammals, has only been detected up to a certain small percentage.
For the cyclization, 0.3 mmol of the anagrelide prodrug methyl-(2-amino-5,6-dichloro-2H-quinazolin-3-yl) acetate hydrochloride (analysis: UV-Maxima 217,262 nm; MW 324.59; mp>250° C.), corresponding to the general formula I, wherein R1 indicates an alkyl group with one carbon atom, R2 and R3 each indicate a hydrogen atom, and R4 and R5 each indicate a chlorine atom, was added to 10 ml of an aqueous hydrochloric acid solution (0.1 M HCl), at 37° C. with slight stirring. After one hour, 9.6% of the prodrug was converted to anagrelide. [drawing 2]
For the cyclization, 0.3 mmol of the anagrelide prodrug methyl-(2-amino-5,6-dichloro-2H-quinazolin-3-yl) acetate hydrochloride (MW 324.59) corresponding to the general formula I, wherein R1 indicates an alkyl group with one carbon atom, R2 and R3 each indicate a hydrogen atom, and R4 and R5 each indicate a chlorine atom, was added to 10 ml of pH-neutral water, at 37° C. with slight stirring. After one hour, 58% of the prodrug was converted to anagrelide.
For the cyclization, 0.3 mmol of the anagrelide prodrug methyl-(2-amino-5,6-dichloro-2H-quinazolin-3-yl) acetate hydrochloride corresponding to the general formula I, wherein R1 indicates an alkyl group with one carbon atom, R2 and R3 each indicate a hydrogen atom, and R4 and R5 each indicate a chlorine atom, was added to 10 ml of an aqueous basic solution (0.1 M NaOH), at 37° C. with slight stirring. After one hour, 100% of the prodrug was converted to anagrelide.
(§1) For the cyclization, 0.3 mmol of the anagrelide prodrug ethyl-(2-amino-5,6-dichloro-2H-quinazolin-3-yl) acetate hydrochloride hemihydrate, corresponding to the general formula I, wherein R1 indicates an alkyl group with two carbon atoms, R2 and R3 each indicate a hydrogen atom, and R4 and R5 each indicate a chlorine atom, was added to 10 ml of an aqueous basic solution (15 g of sodium hydrogen carbonate in 1 liter of water), at 37° C. with slight stirring. This basic solution was selected because it corresponds to a common test system for simulation of the milieu of the intestinal juice (pH between 8 and 10). After one hour, 100% of the prodrug was converted to anagrelide.
as §1, with “methyl-(2-amino-5,6-dichloro-2H-quinazolin-3-yl)” for “ethyl-(2-amino-5,6-dichloro-2H-quinazolin-3-yl)”, “one” for “two”, “atom,” for “atoms,”
as §1, with “hydrobromide (analysis: UV maxima 204, 216, 262 nm; mp 291-293,” for “hydrochloride hemihydrate,”

[4] = system: blood platelets; conditions: mentioned in U.S. Pat. No. 4,146,718; cited from earlier work
[5] = 0.3 mmol in 10 ml aqueous basic solution (15 g sodium hydrogen carbonate in 1 liter water; simulated intestinal juice, pH between 8 and 10)

In the case of O=C1CN2Cc3c(ccc(Cl)c3Cl)N=C2N1 [anagrelide, 6,7-dichloro-1,5-dihydroimidazo-[2,1-b]-quinazolin-2-[3H]-one], the decrease in thrombocytes [1] is listed as “approximately 50%” and the solubility in water [2] is listed as “difficultly soluble in water”.

For “Ethyl-(2-amino-5,6-dichloro-2H-quinazolin-3-yl) acetate hydrochloride hemihydrate”, the “prodrug converted to anagrelide” value [3, 5] was 100%.

In the case of Br.CCOC(=O)CN1Cc2c(ccc(Cl)c2Cl)N=C1N [Ethyl-(2-amino-5,6-dichloro-2H-quinazolin-3-yl) acetate hydrobromide], the “prodrug converted to anagrelide” value [3, 5] is given as 100% and the “effect on blood platelets” value [4] is given as “anti-aggregative effect on blood platelets”.

With COC(=O)CN1C=c2c(Cl)c(Cl)ccc2=NC1N.Cl (stereo not drawn) [Methyl-(2-amino-5,6-dichloro-2H-quinazolin-3-yl) acetate hydrochloride] the “prodrug converted to anagrelide” value ([3]; 0.3 mmol in 10 ml aqueous basic solution (0.1 M NaOH)) was 100%, the “prodrug converted to anagrelide” value ([3]; 0.3 mmol in 10 ml aqueous hydrochloric acid solution (0.1 M HCl)) was 9.6% and the “prodrug converted to anagrelide” value ([3]; 0.3 mmol in 10 ml pH-neutral water) was 58%.

For “Methyl-(2-amino-5,6-dichloro-2H-quinazolin-3-yl) acetate hydrochloride hemihydrate”, the “prodrug converted to anagrelide” value [3, 5] was 100%.
